Measured values from patent publication US20220325173A1, “RNA FLUORESCENT PROBE FOR RAPIDLY DISTINGUISHING CANCER TISSUE FROM NORMAL TISSUE BASED ON NUCLEOLAR MORPHOLOGICAL CHANGES” (SHANDONG UNIVERSITY, priority 2020, published 2022).

What was measured:
RNA in SiHa cells = test: RNase digestion assay: staining of RNase-treated fixed SiHa cells with CAPY-AP; assay type: cell-based; details: RNase 25 μg/mL 2 hours, then 5 μM CAPY-AP 30 min, 488 nm laser, green channel 500-600 nm
Excerpt: Obtaining method: the fixed SiHa cells treated with RNase and then stained with CAPY-AP. Under the confocal laser scanning microscope, the cells are irradiated with the 488 nm laser to obtain micrographs. FIG. 2a is the image of a green channel at 500-600 nm from CAPY-AP excited by the 488 nm laser. FIG. 2b is a differential interference contrast (DIC) micrograph scanned by a bright field laser. FIG. 2c is the merge image of FIG. 2a and FIG. 2b.
Preparation of fixed cells: first, the cover glass covered with the SiHa cells prepared in Example 2 was immersed in a 4% paraformaldehyde solution for 30 min, and then 0.5%
Triton X-100 was used for permeation at room temperature for 2 min to obtain the fixed cells.
A group of the above fixed cells was taken out and digested in an incubator for 2 hours after RNase with a 25 μg/mL concentration was added, then washed with PBS 3 times and stained with a 5 μM CAPY-AP in a CO2 incubator for 30 min. The cover glass with stained cells was taken out, excess dyes were washed off, the cover glass with a cell growth side facing down covers a glass slide, and the staining locations, fluorescence distribution and brightness changes of the cells were observed under a confocal laser scanning microscope (the cells were irradiated with a 488 nm laser) and recorded.

[1] = test system: cytoplasmic RNA and nucleoli in human mammary cancer tissue and normal mammary tissue; test: Fluorescence staining of frozen sections of human mammary cancer tissue and its adjacent normal tissue
Excerpt: Obtaining method: after the frozen sections of human mammary cancer tissue and its adjacent normal tissue are stained with CAPY-AP and Hoechst 33342, the tissue is irradiated with 488 nm and 405 nm lasers respectively under the confocal laser scanning microscope, and superposition images of two channels (blue channel: 420-450 nm, green channel: 500-600 nm) are obtained. The frozen sections of the same tissue are stained with H&E to obtain H&E staining images. Amongst, the enlarged images come from two box regions of fluorescent staining images of mammary cancer tissue.
(§1) The frozen sections of the mammary cancer tissue and its adjacent normal tissue from intraoperative pathological samples of breast cancer patients (Pathology No. 57977.18) were obtained from the department of pathology, Qilu Hospital of Shandong University. In order to stain, the frozen sections were immersed into a 10% EtOH PBS buffer solution with a 10 μM CAPY-AP and a 10 μM Hoechst 33342 for 10 min, and then observed under a confocal laser scanning microscope (the tissue was irradiated with 488 nm and 405 nm lasers respectively) to obtain fluorescence images. The fluorescence images were compared with the corresponding H&E images.
as §1, with “60551.18)” for “57977.18)”
as §1, with “61864.18)” for “57977.18)”

[2] = test system: cytoplasmic RNA and nucleoli in SiHa cells; test: Staining live SiHa cells with CAPY-AP, confocal laser scanning microscopy; assay type: cell-based; details: 5 μM CAPY-AP, 30 min, 488 nm laser, green channel 500-600 nm
Protocol: Obtaining method: the SiHa cells are incubated with CAPY-AP for 30 min, and then the cells are irradiated with a 488 nm laser under a confocal laser scanning microscope to obtain micrographs. FIG. 1a is the image of green channel at 500-600 nm from CAPY-AP excited by the 488 nm laser. FIG. 1B is a differential interference contrast (DIC) micrograph scanned by a bright field laser. FIG. 1c is the merge image of FIG. 1a and FIG. 1b.
SiHa cells were cultured in adherent conditions in a culture media containing 10% fetal bovine serum and incubated in a 37° C. and 5% CO2 saturated humidity incubator. The culture media was replaced every 2-3 days for passage once. […]
First, DMSO solution of a 5 mM CAPY-AP was prepared as a stock solution. […] After staining, the cover glass with cells was taken out, excess probes were washed off, the cover glass with the cell growth side facing down covers a glass slide, and the staining locations, fluorescence distribution and brightness changes of the cells were observed under a confocal laser scanning microscope (the cells were irradiated with a 488 nm laser).

[3] = 10 μM CAPY-AP with 10 μM Hoechst 33342, 10% EtOH PBS, 10 min, 488 nm and 405 nm lasers

**Q.** Which “fluorescence of fixed SiHa cells after RNase treatment (FIG. 2)” value (RNA in SiHa cells) does the source give for `CCn1c2ccccc2c2cc(/C=C/c3cc[n+](CCCN)cc3)ccc21` [CAPY-AP, (E)-1-(3-aminopropyl)-4-(2-(9-ethyl-9H-carbazol-3-yl)vinyl)pyridine-1-ium dibromide] here?
**A.** fluorescence in the nucleoli and cytoplasm is almost invisible

**Q.** What about the “fluorescence distribution in frozen sections, Pathology No. 57977.18 (FIG. 3)” value [1, 3] of the same compound?
**A.** obvious green light distribution in cytoplasmic and nucleolar areas, while no fluorescence exists in extracellular matrices

**Q.** And the “imaging of cytoplasmic RNA and nucleoli in frozen sections, Pathology No. 60551.18 (FIG. 4)” value [1, 3]?
**A.** can specifically image the cytoplasmic RNA and nucleoli in the frozen sections of the human mammary pathological tissue

**Q.** What about the “imaging of cytoplasmic RNA and nucleoli in frozen sections, Pathology No. 61864.18 (FIG. 5)” value [1, 3] of the same compound?
**A.** can specifically image the cytoplasmic RNA and nucleoli in the frozen sections of the human mammary pathological tissue

**Q.** And the “imaging of cytoplasmic RNA and nucleoli in frozen sections, summary of FIG. 3, FIG. 4 and FIG. 5” value ([1]; three pathology samples together, CAPY-AP and Hoechst 33342)?
**A.** can specifically image the cytoplasmic RNA and nucleoli in frozen sections of human mammary pathological tissue

**Q.** What about the “staining locations and fluorescence distribution in live SiHa cells (FIG. 1)” value [2] of the same compound?
**A.** obvious green light distribution in cytoplasmic and nucleolar areas
